Data on 13 compounds can be found in article PMC10305287, “Design, Synthesis, and Evaluation of the COX-2 Inhibitory Activities of New 1,3-Dihydro-2H-indolin-2-one Derivatives” (Molecules, 2023).

The subject of data set [1] is RAW 264.7 cells. Nature of the data set: Cytotoxicity assay (CCK-8) on RAW 264.7 cells. It counts as cell-based, mouse. How it is done:
The RAW 264.7 murine macrophage cells were obtained from the Cell Bank of the Chinese Academy of Sciences (Shanghai, China). RAW 264.7 cells were cultured in DMEM (Dulbecco’s Modified Eagle Medium) medium supplemented with 10% fetal bovine serum and 1% penicillin/streptomycin at 37 °C and 5% CO2 in a saturated humidified incubator. The Cell Counting Kit-8 (CCK-8) method was used to evaluate the cytotoxicity of all the compounds on RAW 264.7 cells in vitro. […] After 24 h of cultivation, the cells were incubated with a CCK-8 solution (10 µL). After incubation at 37 °C and 5% CO2 for 2–4 h, the optical density (OD) was recorded at 450 nm by a microplate reader. The half-maximal inhibitory concentration (IC50) was calculated by SPSS 22.0 software. PDTC was used as a positive control.

Data set [2] concerns NO production in LPS-stimulated RAW 264.7 cells. Nature of the data set: Inhibition of NO production in LPS-stimulated RAW 264.7 cells. Type of data set: cell-based, murine. The following applies: for Anti-inflammatory activity, NO production (in words): LPS-stimulated RAW 264.7 cells; for IC50: LPS-activated RAW 264.7 cells, mean ± SD, n = 3. How it is done: RAW 264.7 cells were cultured in DMEM medium supplemented with 10% fetal bovine serum and 1% penicillin/streptomycin at 37 °C and 5% CO2 in a saturated humidified incubator. Then cells were seeded in 24-well plates (4 × 10^5 cells/well) after 24 h of incubation and treated with different concentrations of compounds (80, 40, 20, and 5 μM) for 2 h. The cells were stimulated with LPS (5 μg/mL) for 24 h, the supernatant was transferred to a new 24-well microtiter plate, and the NO concentration in the cell supernatant was calculated using an NO detection kit (Beyotime Company, Shanghai, China).

The target in data set [3] is T1, human recombinant COX-2 enzyme (Homo sapiens, UniProt P35354).
T1 construct: purchased Beyotime Company, Shanghai, China
T1 sequence (P35354 18-604): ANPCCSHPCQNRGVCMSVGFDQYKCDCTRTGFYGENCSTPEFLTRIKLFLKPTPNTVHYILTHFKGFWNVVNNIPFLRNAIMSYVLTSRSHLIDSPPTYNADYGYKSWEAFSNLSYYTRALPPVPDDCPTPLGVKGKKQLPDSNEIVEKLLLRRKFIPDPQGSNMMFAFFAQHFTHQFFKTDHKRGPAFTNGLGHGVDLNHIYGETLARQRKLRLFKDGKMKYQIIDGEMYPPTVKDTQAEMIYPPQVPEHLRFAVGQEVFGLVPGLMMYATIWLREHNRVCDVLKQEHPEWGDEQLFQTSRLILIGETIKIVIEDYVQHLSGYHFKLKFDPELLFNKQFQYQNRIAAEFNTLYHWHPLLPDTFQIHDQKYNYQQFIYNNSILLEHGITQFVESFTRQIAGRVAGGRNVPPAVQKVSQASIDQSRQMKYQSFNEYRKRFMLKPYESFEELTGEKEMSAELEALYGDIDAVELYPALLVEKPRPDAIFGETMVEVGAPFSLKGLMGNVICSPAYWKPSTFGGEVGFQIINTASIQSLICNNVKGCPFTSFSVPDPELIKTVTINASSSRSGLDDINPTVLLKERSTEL
The data set is described as follows: In vitro COX-2 inhibitory assay (Cyclooxygenase-2 Inhibitor Screening Kit). Type of data set: biochemical. The following applies: for IC50: human recombinant COX-2, fluorescence kit, mean ± SD, n = 3; for COX-2 inhibitory activity (in words): human recombinant COX-2, screening kit. How it is done: The reaction was started by the addition of COX-2 substrate and allowed to proceed for 5 min. The intensity of fluorescence at an emission wavelength of 590 nm upon 560 nm excitation was measured using a microplate reader (Thermo Varioskan LUX, Waltham, MA, USA). All tests were repeated three times independently.

In data set [4] the test system is COX-2. The note with it: read-out: IC50 (COX-2); cited from earlier work.
Where [5] appears, read: CCK-8, concentration not stated.

Entries after “also recorded” stand apart in the source; their conditions may differ. Bounds are passed on as bounds.

The IC50 is the concentration that inhibits the measured activity by half. One may read the melting point as the temperature of the solid-liquid transition.

As for `CC(=O)N1C(=O)C(=Cc2cccc(C(F)(F)F)c2)c2ccccc21` [Compound 4j], the melting point fell in the range of 121.5 to 123.3 °C. Further, the “Cytotoxicity (in words)” value in data set [1] (setting [5]) was “weak cytotoxicity”. In data set [2], the “Anti-inflammatory activity, NO production (in words)” value is “obvious anti-inflammatory activity”. Moreover, the concentration for half-maximal inhibition (IC50) in data set [2] (Mus musculus, RAW264.7) worked out at 16.3 ± 0.35 µM.
`O=C1Cc2cc(/N=C/c3cccc(C(F)(F)F)c3)ccc2N1` [Compound 9h] registered a melting point of 166.3 to 166.8 °C. Moreover, in data set [1] (CCK-8, at 100 μM), the “Cytotoxicity (in words)” value was “almost no cytotoxicity”. For the same compound, the “Cytotoxicity (in words)” value in data set [1] (setting [5]) was “no cytotoxicity”. Besides, the “Anti-inflammatory activity, NO production (in words)” value in data set [2] was “no anti-inflammatory activity”. In data set [3], the IC50 is 2.35 ± 0.04 µM and the “COX-2 inhibitory activity (in words)” value is on record as “good inhibitory activity”.
As for `O=C1Nc2ccc(NS(=O)(=O)c3ccc([N+](=O)[O-])cc3)cc2C1=Cc1cccc(C(F)(F)F)c1` [Compound 9d], the melting point lay in the range of 226.5 to 226.9 °C. Further, in data set [1] (setting [5]), the “Cytotoxicity (in words)” value is listed as “weak cytotoxicity”. For the same compound, in data set [2], the “Anti-inflammatory activity, NO production (in words)” value was “obvious anti-inflammatory activity”. In data set [2] (Mus musculus, RAW264.7), this compound gave an IC50 of 10 ± 0.27 µM.
For the compound `O=C1Cc2cc(N=Cc3cc(C(F)(F)F)cc(C(F)(F)F)c3)ccc2N1` [Compound 9i, 5-((3,5-bis(trifluoromethyl)benzylidene)amino)indolin-2-one], the melting point fell in the range of 191.1 to 191.5 °C. Also, the “Cytotoxicity (in words)” value in data set [1] (CCK-8, at 100 μM) was “almost no cytotoxicity”. Besides, the “Cytotoxicity (in words)” value in data set [1] (setting [5]) is “no cytotoxicity”. For the same compound, the “Anti-inflammatory activity, NO production (in words)” value in data set [2] was “no anti-inflammatory activity”. In addition, in data set [3], the IC50 was determined as 2.42 ± 0.1 µM and the “COX-2 inhibitory activity (in words)” value was “good inhibitory activity”.
`S=C(S)N1CCCC1` [PDTC, Ammonium pyrrolidinedithiocarbamate, reference compound]: in data set [2], the IC50 turned out to be 13.7 ± 0.88 µM.
`CC(=O)N1C(=O)C(=Cc2cccc(C(F)(F)F)c2)c2cc(N)ccc21` [Compound 4e] registered a melting point of 165.9 to 166.2 °C. For the same compound, the “Cytotoxicity (in words)” value in data set [1] (CCK-8, at 100 μM) is “almost no cytotoxicity; also recorded: no significant cytotoxicity”. Further, in data set [1] (setting [5]), the “Cytotoxicity (in words)” value is reported as “weak cytotoxicity”. In data set [2], the “Anti-inflammatory activity, NO production (in words)” value is “obvious anti-inflammatory activity”. Moreover, the 50% inhibitory concentration (IC50) in data set [2] (Mus musculus, RAW264.7) was 13.5 ± 0.48 µM. In data set [3], the half-inhibitory concentration (IC50) was 3.34 ± 0.05 µM.
Regarding `Cc1ccc(S(=O)(=O)Nc2ccc3c(c2)C(=Cc2cccc(C(F)(F)F)c2)C(=O)N3)cc1` [Compound 9f], the melting point lay in the range of 191.1 to 191.5 °C.
Turning to `CC(=O)N1C(=O)/C(=C/c2cccc(C(F)(F)F)c2)c2ccc(C(F)(F)F)cc21` [Compound 4b], the melting point was 91.3 to 92.8 °C.
As for `CC(=O)N1C(=O)C(=Cc2ccccc2C(F)(F)F)c2ccc(Cl)cc21` [Compound 4k], the melting point is 131 to 133.6 °C. Further, the IC50 in data set [3] is greater than 20 µM.
In the case of `COc1ccc2c(c1)c(CC(=O)O)c(C)n2C(=O)c1ccc(Cl)cc1` [indomethacin], in data set [4], the half-maximal inhibitory concentration (IC50) was […].
`CC(=O)N1C(=O)C(=Cc2ccc(C(F)(F)F)cc2)c2ccc(Cl)cc21` [Compound 4i] showed a melting point of 142.9 to 144.1 °C. Moreover, the “Cytotoxicity (in words)” value in data set [1] (setting [5]) is recorded as “weak cytotoxicity”. In addition, in data set [2], the “Anti-inflammatory activity, NO production (in words)” value is “obvious anti-inflammatory activity”. In data set [2] (Mus musculus, RAW264.7), this compound showed an IC50 of 20.4 ± 1.61 µM.
On to `CC(=O)N1C(=O)/C(=C\c2cccc(C(F)(F)F)c2)c2ccc(C(F)(F)F)cc21` [Compound 4a], for which the melting point lay within 131.2 to 132.1 °C. Besides, in data set [1] (setting [5]), the “Cytotoxicity (in words)” value is recorded as “weak cytotoxicity”. Moreover, the “Anti-inflammatory activity, NO production (in words)” value in data set [2] is “obvious anti-inflammatory activity”. Besides, the half-inhibitory concentration (IC50) in data set [2] (Mus musculus, RAW264.7) came to 17.8 ± 1.86 µM. The IC50 in data set [3] was determined as 19.9 ± 4.76 µM.
On to `COc1cccc(C=C2C(=O)N(C(C)=O)c3cc(Cl)ccc32)c1` [Compound 4s], for which the melting point is 141.3 to 143.2 °C. Also, the “Cytotoxicity (in words)” value in data set [1] (CCK-8, at 100 μM) is “almost no cytotoxicity”.
